Assay results published in US6906097B2, “8-azaprostaglandin analogs as agents for lowering intraocular pressure” (Allergan, Inc., priority 2002, dated 2005).

Experiments:
hEP3A = molecular target: T1, hEP3A (Homo sapiens, UniProt P43115); assay: Functional data, human recombinant EP3A receptor stable transfectants; assay type: cell-based
T1 construct: expressed in transfected cells
T1 sequence (P43115 1-390): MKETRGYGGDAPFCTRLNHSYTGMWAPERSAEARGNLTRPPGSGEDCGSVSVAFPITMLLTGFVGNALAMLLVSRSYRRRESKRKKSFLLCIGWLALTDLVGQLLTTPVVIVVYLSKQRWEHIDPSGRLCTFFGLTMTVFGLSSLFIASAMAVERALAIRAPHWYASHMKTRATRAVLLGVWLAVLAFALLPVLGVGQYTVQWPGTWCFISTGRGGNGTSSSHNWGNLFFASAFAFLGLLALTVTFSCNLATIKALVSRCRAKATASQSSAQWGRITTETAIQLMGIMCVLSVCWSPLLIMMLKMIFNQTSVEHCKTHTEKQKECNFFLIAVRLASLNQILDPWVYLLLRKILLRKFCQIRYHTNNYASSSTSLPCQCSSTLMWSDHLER
Description: (§1) Human Recombinant EP1, EP2, EP3, EP4, FP, TP, IP and DP Receptors: Stable Transfectants
(§2) Plasmids encoding the human EP1, EP2, EP3, EP4, FP, TP, IP and DP receptors were prepared by cloning the respective coding sequences into the eukaryotic expression vector pCEP4 (Invitrogen). The pCEP4 vector contains an Epstein Barr virus (EBV) origin of replication, which permits episomal replication in primate cell lines expressing EBV nuclear antigen (EBNA-1). It also contains a hygromycin resistance gene that is used for eukaryotic selection. […] HEK-293 cells were grown in DMEM with 10% fetal bovine serum (FBS), 250 μg ml^−1 G418 (Life Technologies) and 200 μg ml^−1 gentamicin or penicillin/streptomycin.
(§3) For transfection, the cells were grown to 50-60% confluency on 10 cm plates. The plasmid pCEP4 incorporating cDNA inserts for the respective human prostanoid receptor (20 μg) was added to 500 μl of 250 mM CaCl2. […] After 30 min, 9 ml DMEM were added to the mixture. The DNA/DMEM/calcium phosphate mixture was then added to the cells, which had been previously rinsed with 10 ml PBS. The cells were then incubated for 5 hr at 37° C. in humidified 95% air/5% CO2. The calcium phosphate solution was then removed and the cells were treated with 10% glycerol in DMEM for 2 min. The glycerol solution was then replaced by DMEM with 10% FBS. The cells were incubated overnight and the medium was replaced by DMEM/10% FBS containing 250 μg ml^−1 G418 and penicillin/streptomycin. The following day hygromycin B was added to a final concentration of 200 μg ml^−1.
(§4) Ten days after transfection, hygromycin B resistant clones were individually selected and transferred to a separate well on a 24 well plate. At confluence each clone was transferred to one well of a 6 well plate, and then expanded in a 10 cm dish. Cells were maintained under continuous hygromycin selection until use.

hEP4 [1] = molecular target: T2, hEP4 (Homo sapiens, UniProt P35408); assay: Functional data, human recombinant EP4 receptor stable transfectants; assay type: cell-based
T2 construct: expressed in transfected cells
Description: as §1, §2, §3, §4

hEP4 [2] = molecular target: T2, hEP4; assay: Radioligand binding, hEP4; conditions: [3H]PGE2 competition
Description: as §1, §2, §3, §4
Radioligand binding studies on plasma membrane fractions prepared for cells stably transfected with the cat or human receptor were performed as follows. Cells washed with TME buffer were scraped from the bottom of the flasks and homogenized for 30 sec using a Brinkman PT 10/35 polytron. TME buffer was added as necessary to achieve a 40 ml volume in the centrifuge tubes. TME is comprised of 50 mM TRIS base, 10 mM MgCl2, 1 mM EDTA; pH 7.4 is achieved by adding 1 N HCl. The cell homogenate was centrifuged at 19,000 rpm for 20-25 min at 4° C. using a Beckman Ti-60 or Ti-70 rotor. The pellet was then resuspended in TME buffer to provide a final protein concentration of 1 mg/ml, as determined by Bio-Rad assay. Radioligand binding assays were performed in a 100 μl or 200 μl volume.
The binding of [^3H](N) PGE2 (specific activity 165 Ci/mmol) was determined in duplicate and in at least 3 separate experiments. Incubations were for 60 min at 25° C. and were terminated by the addition of 4 ml of ice-cold 50 mM TRIS-HCl followed by rapid filtration through Whatman GF/B filters and three additional 4 ml washes in a cell harvester (Brandel). Competition studies were performed using a final concentration of 2.5 or 5 nM [^3H](N) PGE2 and non-specific binding was determined with 10^−5 M unlabelled PGE2.

hTP = molecular target: T3, hTP (Homo sapiens, UniProt P21731); assay: Functional data, human recombinant TP receptor stable transfectants; assay type: cell-based
T3 construct: expressed in transfected cells
T3 sequence (P21731 1-343): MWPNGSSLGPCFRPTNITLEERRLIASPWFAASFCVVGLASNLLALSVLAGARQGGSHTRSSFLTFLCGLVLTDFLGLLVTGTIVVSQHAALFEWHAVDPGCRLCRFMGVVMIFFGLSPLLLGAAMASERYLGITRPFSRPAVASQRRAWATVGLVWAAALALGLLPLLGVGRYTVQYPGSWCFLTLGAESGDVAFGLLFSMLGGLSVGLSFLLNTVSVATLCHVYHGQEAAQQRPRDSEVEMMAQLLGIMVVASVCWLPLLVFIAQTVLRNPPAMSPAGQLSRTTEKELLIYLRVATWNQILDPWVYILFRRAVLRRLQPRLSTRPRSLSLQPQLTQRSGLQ
Description: as §1
(§5) Plasmids encoding the human EP1, EP2, EP3, EP4, FP, TP, IP and DP receptors were prepared by cloning the respective coding sequences into the eukaryotic expression vector pCEP4 (Invitrogen). The pCEP4 vector contains an Epstein Barr virus (EBV) origin of replication, which permits episomal replication in primate cell lines expressing EBV nuclear antigen (EBNA-1). It also contains a hygromycin resistance gene that is used for eukaryotic selection. The cells employed for stable transfection were human embryonic kidney cells (HEK-293) that were transfected with and express the EBNA-1 protein. These HEK-293-EBNA cells (Invitrogen) were grown in medium containing Geneticin (G418) to maintain expression of the EBNA-1 protein. HEK-293 cells were grown in DMEM with 10% fetal bovine serum (FBS), 250 μg ml^−1 G418 (Life Technologies) and 200 μg ml^−1 gentamicin or penicillin/streptomycin.
(§6) For transfection, the cells were grown to 50-60% confluency on 10 cm plates. The plasmid pCEP4 incorporating cDNA inserts for the respective human prostanoid receptor (20 μg) was added to 500 μl of 250 mM CaCl2. HEPES buffered saline×2 (2×HBS, 280 mM NaCl, 20 mM HEPES acid, 1.5 mM Na2 HPO4, pH 7.05-7.12) was then added dropwise to a total of 500 μl, with continuous vortexing at room temperature. After 30 min, 9 ml DMEM were added to the mixture. The DNA/DMEM/calcium phosphate mixture was then added to the cells, which had been previously rinsed with 10 ml PBS. The cells were then incubated for 5 hr at 37° C. in humidified 95% air/5% CO2. The calcium phosphate solution was then removed and the cells were treated with 10% glycerol in DMEM for 2 min. The glycerol solution was then replaced by DMEM with 10% FBS. The cells were incubated overnight and the medium was replaced by DMEM/10% FBS containing 250 μg ml^−1 G418 and penicillin/streptomycin. The following day hygromycin B was added to a final concentration of 200 μg ml^−1.
as §4

hEP1 = molecular target: T4, hEP1 (Homo sapiens, UniProt P34995); assay: Functional data, human recombinant EP1 receptor stable transfectants; assay type: cell-based
T4 construct: expressed in transfected cells
T4 sequence (P34995 1-402): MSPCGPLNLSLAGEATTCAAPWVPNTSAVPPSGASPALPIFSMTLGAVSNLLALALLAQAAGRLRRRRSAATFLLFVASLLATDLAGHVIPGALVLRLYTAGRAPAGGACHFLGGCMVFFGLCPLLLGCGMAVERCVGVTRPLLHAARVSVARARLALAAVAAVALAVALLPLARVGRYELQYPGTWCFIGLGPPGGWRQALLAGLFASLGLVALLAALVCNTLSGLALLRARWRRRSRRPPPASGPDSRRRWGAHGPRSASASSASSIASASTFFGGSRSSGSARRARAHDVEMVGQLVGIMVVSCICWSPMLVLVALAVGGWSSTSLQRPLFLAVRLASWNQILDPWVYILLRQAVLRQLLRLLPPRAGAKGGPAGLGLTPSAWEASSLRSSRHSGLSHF
Description: as §1, §5, §6, §4

T2 sequence (P35408 whole entry): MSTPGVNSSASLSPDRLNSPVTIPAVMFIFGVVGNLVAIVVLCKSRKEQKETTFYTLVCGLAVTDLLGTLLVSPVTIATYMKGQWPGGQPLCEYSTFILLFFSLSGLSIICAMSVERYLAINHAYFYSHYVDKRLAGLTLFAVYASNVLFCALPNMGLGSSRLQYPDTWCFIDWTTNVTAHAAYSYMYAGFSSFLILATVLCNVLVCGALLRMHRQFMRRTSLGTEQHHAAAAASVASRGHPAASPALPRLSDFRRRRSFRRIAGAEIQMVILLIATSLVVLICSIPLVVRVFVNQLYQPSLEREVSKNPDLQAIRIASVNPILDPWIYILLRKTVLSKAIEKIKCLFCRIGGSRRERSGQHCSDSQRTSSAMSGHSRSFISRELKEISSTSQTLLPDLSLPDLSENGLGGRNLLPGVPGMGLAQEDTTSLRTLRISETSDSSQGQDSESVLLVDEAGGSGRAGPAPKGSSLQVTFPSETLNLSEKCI

Structure (SMILES) | hEP3A functional EC50 (hEP3A) | EC50 (hEP4 [1]) [nM] | IC50 (hEP4 [2]) [nM] | EC50 (hEP3A) [nM] | EC50 (hTP) [nM] | hEP1 functional EC50 (hEP1) | EC50 (hEP1) [nM]
O=C(O)CCCCCCN1C(=O)CC[C@@H]1CCC(O)Cc1cccc(C(F)(F)F)c1 (stereo partly drawn) [Example 5, 7-[2S-[3R-Hydroxy-4-(3-trifluoromethyl-phenyl)-butyl]-5-oxo-pyrrolidin-1-yl]-heptanoic acid] | hit | 0.4 | 17 |  |  |  | 
CCOC(=O)CCCCCCN1C(=O)CC[C@@H]1CCC(=O)Cc1ccccc1 [Example 12, 7-[2S-[3-Oxo-4-(phenyl)-butyl]-5-oxo-pyrrolidin-1-yl]-heptanoic acid, ethyl ester] |  | > 10000 | 8900 |  |  |  | 
CCOC(=O)CCCCCCN1C(=O)CC[C@@H]1/C=C/C(=O)Cc1ccccc1 [Example 12a, 7-[2S-[3-Oxo-4-(phenyl)-but-1-enyl]-5-oxo-pyrrolidin-1-yl]-heptanoic acid, ethyl ester] |  | > 10000 | > 10000 |  |  |  | 
O=C(O)CCCCCCN1C(=O)CC[C@@H]1/C=C/C(=O)Cc1cccc(Cl)c1 [Example 3a, 7-[2S-[4-(3-Chloro-phenyl)-3-oxo-but-1-enyl]-5-oxo-pyrrolidin-1-yl]-heptanoic acid] |  | 54 | 300 | 324 | > 10000 | hit | 
CCOC(=O)CCCCCCN1C(=O)CC[C@@H]1/C=C/C(O)Cc1cccc(Cl)c1 (stereo partly drawn) [Example 2a, 7-[2S-[3R-Hydroxy-4-(chlorophenyl)-but-1-enyl]-5-oxo-pyrrolidin-1-yl]-heptanoic acid, ethyl ester] |  | 21 | 300 |  |  |  | 
O=C(O)CCCCCCN1C(=O)CC[C@@H]1CCC(=O)Cc1cccc(C(F)(F)F)c1 [Example 7, 7-[2S-[3-Oxo-4-(trifluormethylphenyl)-butyl]-5-oxo-pyrrolidin-1-yl]-heptanoic acid] | hit | 551 | 2200 |  | > 10000 |  | > 10000
CCOC(=O)CCCCCCN1C(=O)CC[C@@H]1CCC(O)Cc1cccc(C(F)(F)F)c1 (stereo partly drawn) [Example 6, 7-[2S-[3R-Hydroxy-4-(3-trifluoromethyl-phenyl)-butyl]-5-oxo-pyrrolidin-1-yl]-heptanoic acid, ethyl ester] |  | 111 | 1200 |  |  |  | 
CCOC(=O)CCCCCCN1C(=O)CC[C@@H]1/C=C/C(=O)Cc1cccc(C(F)(F)F)c1 [Example 8a, 7-[2S-[3-Oxo-4-(trifluoromethylphenyl)-but-1-enyl]-5-oxo-pyrrolidin-1-yl]-heptanoic acid, ethyl ester] |  | > 10000 | > 10000 | > 10000 |  |  | 
O=C(O)CCCCCCN1C(=O)CC[C@@H]1CCC(O)Cc1ccccc1 (stereo partly drawn) [Example 9, 7-[2S-[3R-Hydroxy-(4-phenyl)-butyl]-5-oxo-pyrrolidin-1-yl]-heptanoic acid] |  | 2.4 | 18 | > 10000 |  |  | 
CCOC(=O)CCCCCCN1C(=O)CC[C@@H]1/C=C/C(O)Cc1ccccc1 (stereo partly drawn) [Example 10a, 7-[2S-[3R-Hydroxy-(4-phenyl)-but-1-enyl]-5-oxo-pyrrolidin-1-yl]-heptanoic acid, ethyl ester] |  | 368 | 600 |  |  |  | 
CCOC(=O)CCCCCCN1C(=O)CC[C@@H]1/C=C/C(=O)Cc1cccc(Cl)c1 [Example 4a, 7-[2S-[4-(3-Chloro-phenyl)-3-oxo-but-1-enyl]-5-oxo-pyrrolidin-1-yl]-heptanoic acid, ethyl ester] |  | > 10000 | > 10000 |  |  |  | 
CCOC(=O)CCCCCCN1C(=O)CC[C@@H]1CCC(=O)Cc1cccc(C(F)(F)F)c1 [Example 8, 7-[2S-[3-Oxo-4-(trifluoromethylphenyl)-butyl]-5-oxo-pyrrolidin-1-yl]-heptanoic acid, ethyl ester] |  | 7160 | > 10000 |  |  |  | 
CCOC(=O)CCCCCCN1C(=O)CC[C@@H]1CCC(O)Cc1ccccc1 (stereo partly drawn) [Example 10, 7-[2S-[3R-Hydroxy-(4-phenyl)-butyl]-5-oxo-pyrrolidin-1-yl]-heptanoic acid, ethyl ester] |  | 1020 |  |  |  |  | 
O=C(O)CCCCCCN1C(=O)CC[C@@H]1/C=C/C(O)Cc1cccc(C(F)(F)F)c1 (stereo partly drawn) [Example 5a, 7-[2S-[3R-Hydroxy-4-(3-trifluoromethyl-phenyl)-but-1-enyl]-5-oxo-pyrrolidin-1-yl]-heptanoic acid] | hit | 0.4 | 5 |  |  |  | 
CCOC(=O)CCCCCCN1C(=O)CC[C@@H]1CCC(O)Cc1cccc(Cl)c1 (stereo partly drawn) [Example 2, 7-[2S-[3R-Hydroxy-4-(chlorophenyl)-butyl]-5-oxo-pyrrolidin-1-yl]-heptanoic acid, ethyl ester] |  | 65 | 1000 |  |  |  | 
